Results taken from patent US8741806B2, “Herbicides” (Syngenta Limited, priority 2009, dated 2014).

Tests used:
Assay type in all cases: in vivo
Avena fatua (AVEFA) [1] = experiment: Example B post-emergence herbicidal activity, glasshouse pot test; settings: 312 h, rate 250 g/ha, evaluated after 13 days, scale 0-100, read-out: Post-emergence activity AVEFA (100=total damage to plant; 0=no damage to plant)
Experimental: (§1) Seeds of a variety of test species were sown in standard soil in pots. After cultivation for one day (pre-emergence) or after 8 days cultivation (post-emergence) under controlled conditions in a glasshouse (at 24/16° C., day/night; 14 hours light; 65% humidity), the plants were sprayed with an aqueous spray solution derived from the formulation of the technical active ingredient of formula I in acetone/water (50:50) solution containing 0.5% Tween 20 (polyoxyethelyene sorbitan monolaurate, CAS RN 9005-64-5). The test plants were then grown in a glasshouse under controlled conditions in a glasshouse (at 24/16° C., day/night; 14 hours light; 65% humidity) and watered twice daily. After 13 days for pre and post-emergence, the test was evaluated (100=total damage to plant; 0=no damage to plant). Setaria faberi (SETFA), Lolium perenne (LOLPE), Alopecurus myosuroides (ALOMY), Echinochloa crus-galli (ECHCG), and Avena fatua (AVEFA). Post-Emergence Activity

[2] = tested on: Alopecurus myosuroides (ALOMY); experiment: as above; settings: 312 h, rate 250 g/ha, evaluated after 13 days, scale 0-100, read-out: Post-emergence activity ALOMY (100=total damage to plant; 0=no damage to plant)
Experimental: as §1

[3] = tested on: Echinochloa crus-galli (ECHCG); experiment: as above; settings: 312 h, rate 250 g/ha, evaluated after 13 days, scale 0-100, read-out: Post-emergence activity ECHCG (100=total damage to plant; 0=no damage to plant)
Experimental: as §1

Lolium perenne (LOLPE) [4] = experiment: as above; settings: 312 h, rate 250 g/ha, evaluated after 13 days, scale 0-100, read-out: Post-emergence activity LOLPE (100=total damage to plant; 0=no damage to plant)
Experimental: as §1

Avena fatua (AVEFA) [5] = experiment: Example B pre-emergence herbicidal activity, glasshouse pot test; settings: 312 h, rate 250 g/ha, evaluated after 13 days, scale 0-100, read-out: Pre-emergence activity AVEFA (100=total damage to plant; 0=no damage to plant)
Experimental: as §1, with “Pre-Emergence” for “Post-Emergence”

[6] = tested on: Alopecurus myosuroides (ALOMY); experiment: as above; settings: 312 h, rate 250 g/ha, evaluated after 13 days, scale 0-100, read-out: Pre-emergence activity ALOMY (100=total damage to plant; 0=no damage to plant)
Experimental: as §1, with “Pre-Emergence” for “Post-Emergence”

[7] = tested on: Echinochloa crus-galli (ECHCG); experiment: as above; settings: 312 h, rate 250 g/ha, evaluated after 13 days, scale 0-100, read-out: Pre-emergence activity ECHCG (100=total damage to plant; 0=no damage to plant)
Experimental: as §1, with “Pre-Emergence” for “Post-Emergence”

Lolium perenne (LOLPE) [8] = experiment: as above; settings: 312 h, rate 250 g/ha, evaluated after 13 days, scale 0-100, read-out: Pre-emergence activity LOLPE (100=total damage to plant; 0=no damage to plant)
Experimental: as §1, with “Pre-Emergence” for “Post-Emergence”

SMILES | pest or weed control at 250 g/ha (Avena fatua (AVEFA) [1]) | pest or weed control at 250 g/ha [2] | pest or weed control at 250 g/ha [3] | pest or weed control at 250 g/ha (Lolium perenne (LOLPE) [4]) | pest or weed control at 250 g/ha (Avena fatua (AVEFA) [5]) | pest or weed control at 250 g/ha [6] | pest or weed control at 250 g/ha [7] | pest or weed control at 250 g/ha (Lolium perenne (LOLPE) [8])
CCc1ccc(-c2ccc(Cl)nc2Cl)cc1C1=C(O)CCCC1=O [Compound T57] | 40% | 50% | 80% | 60% | 0% | 0% | 20% | 10%
CCc1ccc(-c2ccc(Cl)c(OC)c2)cc1C1=C(O)C(C)(C)CCC1=O [Compound T6] | 40% | 0% | 100% | 60% | 0% | 0% | 80% | 0%
CCc1ccc(-c2c(F)cc(Cl)cc2F)cc1C1=C(O)CCCC1=O [Compound T58] | 90% | 60% | 100% | 90% | 0% | 20% | 90% | 70%
CCc1ccc(-c2ccc(C(F)(F)F)cc2)cc1C1=C(O)CC(C)(C)CC1=O [Compound T34] | 100% | 100% | 100% | 100% | 0% | 20% | 50% | 30%
CCc1ccc(-c2ccc(Cl)c(F)c2)cc1C1=C(O)CCCC1=O [Compound T56] | 100% | 60% | 100% | 100% | 20% | 30% | 100% | 90%
CCc1ccc(-c2ccc(Cl)c(C(F)(F)F)c2)cc1C1=C(O)CC(C)(C)CC1=O [Compound T25] | 80% | 80% | 100% | 100% | 20% | 30% | 80% | 70%
CCc1ccc(-c2ccc(Cl)c(C(F)(F)F)c2)cc1C1=C(O)C(C)(C)CCC1=O [Compound T8] | 30% | 40% | 100% | 80% | 20% | 0% | 100% | 90%
CCc1ccc(-c2ccc(Cl)nc2)cc1C1=C(O)C(C)(C)CCC1=O [Compound T11] | 60% | 60% | 90% | 60% | 0% | 0% | 20% | 0%
CCc1ccc(-c2ccc(Cl)c(F)c2)cc1C1=C(O)C(C)(C)CC(C)(C)C1=O [Compound T64] | 80% | 50% | 100% | 80% | 10% | 30% | 70% | 60%
